Source: PubChem BioAssay AID1259407 (Chemical Carcinogenesis Research Information System (CCRIS), 2018)
Calls of active or inactive are those of the source. No rule for the calls is given here.

Tested on: CCRIS mutagenicity, Ames/micronucleus/aberration tests
Assay: CCRIS mutagenicity studies
[1] = Test System: AMES SALMONELLA TYPHIMURIUM, Strain/Indicator: TA98, Metabolic Activation: NONE, Method: STANDARD PLATE
[2] = Test System: AMES SALMONELLA TYPHIMURIUM, Strain/Indicator: TA100, Metabolic Activation: NONE, Method: STANDARD PLATE
[3] = Test System: AMES SALMONELLA TYPHIMURIUM, Strain/Indicator: TA100, Metabolic Activation: RAT, LIVER, S-9, AROCLOR 1254, Method: STANDARD PLATE

## Cc1cc2ncccc2c2nc(N)n(C)c12
End Point: IN VITRO MICRONUCLEUS, Test System: CHL/IU CELLS, Metabolic Activation: RAT, LIVER, S-9, PHENOBARBITAL AND 5,6-BENZOFLAVONE
  mutagenic call: active; positive
Test System: AMES SALMONELLA TYPHIMURIUM, Strain/Indicator: TA98(1,8-DNP6), Metabolic Activation: RAT, LIVER, S-9, Method: STANDARD PLATE
  mutagenic call: inactive; negative
Test System: AMES SALMONELLA TYPHIMURIUM, Strain/Indicator: TA98, Metabolic Activation: HAMSTER, LIVER, HEPATOCYTES, Method: STANDARD PLATE
  mutagenic call: active; positive
Test System: AMES SALMONELLA TYPHIMURIUM, Strain/Indicator: TA98, Metabolic Activation: HUMAN, BLOOD, CYTOSOL, Method: PREINCUBATION
  mutagenic call: active; positive
Test System: AMES SALMONELLA TYPHIMURIUM, Strain/Indicator: TA98, Metabolic Activation: NONE, Method: PREINCUBATION
  mutagenic call: inactive; negative
[1]
  mutagenic call: inactive; negative
Test System: AMES SALMONELLA TYPHIMURIUM, Strain/Indicator: TA98, Metabolic Activation: RAT, LIVER, HEPATOCYTES, AROCLOR 1254, Method: PREINCUBATION
  mutagenic call: active; positive
Test System: AMES SALMONELLA TYPHIMURIUM, Strain/Indicator: TA98, Metabolic Activation: RAT, LIVER, HEPATOCYTES, Method: PREINCUBATION
  mutagenic call: active; positive
Test System: AMES SALMONELLA TYPHIMURIUM, Strain/Indicator: TA98, Metabolic Activation: RAT, LIVER, HEPATOCYTES, Method: STANDARD PLATE
  mutagenic call: active; positive
Test System: AMES SALMONELLA TYPHIMURIUM, Strain/Indicator: TA98, Metabolic Activation: RAT, LIVER, S-9, AROCLOR 1254, Method: PREINCUBATION
  mutagenic call: active; positive
Test System: AMES SALMONELLA TYPHIMURIUM, Strain/Indicator: TA98, Metabolic Activation: RAT, LIVER, S-9, N-BENZYLIMIDAZOLE, Method: PREINCUBATION
  mutagenic call: active; positive
Test System: AMES SALMONELLA TYPHIMURIUM, Strain/Indicator: TA98, Metabolic Activation: RAT, LIVER, S-9, Method: STANDARD PLATE
  mutagenic call: active; positive
Test System: AMES SALMONELLA TYPHIMURIUM, Strain/Indicator: TA98, Metabolic Activation: S-9, Method: STANDARD PLATE
  mutagenic call: active; positive
Test System: AMES SALMONELLA TYPHIMURIUM, Strain/Indicator: TA98, Method: STANDARD PLATE
  mutagenic call: active; positive
Test System: AMES SALMONELLA TYPHIMURIUM, Strain/Indicator: TA100, Metabolic Activation: NONE, Method: PREINCUBATION
  mutagenic call: inactive; negative
[2]
  mutagenic call: inactive; negative
Test System: AMES SALMONELLA TYPHIMURIUM, Strain/Indicator: TA100, Metabolic Activation: RAT, LIVER, S-9, AROCLOR 1254, Method: PREINCUBATION
  mutagenic call: active; positive
Test System: AMES SALMONELLA TYPHIMURIUM, Strain/Indicator: TA100, Metabolic Activation: RAT, LIVER, S=9, AROCLOR 1254, Method: PREINCUBATION
  mutagenic call: active; positive
Test System: AMES SALMONELLA TYPHIMURIUM, Strain/Indicator: TA100, Metabolic Activation: S-9, Method: STANDARD PLATE
  mutagenic call: active; positive
Test System: CHINESE HAMSTER V-79, Strain/Indicator: V-79/6-THIOGUANINE, Metabolic Activation: HAMSTER, PANCREAS DUCT, EPITHELIAL CELLS
  mutagenic call: active; positive
Test System: CHINESE HAMSTER V-79, Strain/Indicator: V-79/6-THIOGUANINE, Metabolic Activation: HUMAN, PANCREAS DUCT, EPITHELIAL CELLS
  mutagenic call: active; positive
Test System: CHINESE HAMSTER V-79, Strain/Indicator: V-79/6-THIOGUANINE, Metabolic Activation: RAT, LIVER, HEPATOCYTES, AROCLOR 1254
  mutagenic call: active; positive
Test System: UDS HAMSTER HEPATOCYTES, Strain/Indicator: THY INCORP, Metabolic Activation: NONE, Method: LIQUID SCINTILLATION COUNTING
  mutagenic call: active; positive
Test System: UDS HUMAN HEPATOCYTES, Strain/Indicator: THY INCORP, Metabolic Activation: NONE, Method: AUTORADIOGRAPHY
  mutagenic call: active; positive
Test System: UDS MOUSE HEPATOCYTES, Strain/Indicator: THY INCORP, Metabolic Activation: NONE, Method: AUTORADIOGRAPHY
  mutagenic call: active; positive
Test System: UDS RAT HEPATOCYTES, Strain/Indicator: THY INCORP, Metabolic Activation: NONE, Method: AUTORADIOGRAPHY
  mutagenic call: active; positive
Test System: UDS RAT HEPATOCYTES, Strain/Indicator: THY INCORP, Metabolic Activation: NONE, Method: LIQUID SCINTILLATION COUNTING
  mutagenic call: active; positive

## O=C(CCl)C(Cl)Cl
Test System: AMES SALMONELLA TYPHIMURIUM, Strain/Indicator: TA100, Metabolic Activation: NONE, Method: FLUCTUATION TEST
  mutagenic call: active; positive
Test System: AMES SALMONELLA TYPHIMURIUM, Strain/Indicator: TA100, Metabolic Activation: RAT, LIVER, S-9, AROCLOR 1254, Method: FLUCTUATION TEST
  mutagenic call: inactive; negative

## O=[N+]([O-])c1cc2c(ccc3cc(N(CCCl)CCCl)ccc32)o1
Test System: AMEA SALMONELLA TYPHIMURIUM, Strain/Indicator: TA100(NR), Metabolic Activation: NONE, Method: STANDARD PLATE
  mutagenic call: active; positive
Test System: AMES SALMONELLA TYPHIMURIUM, Strain/Indicator: TA100(NR), Metabolic Activation: RAT, LIVER, S-9, AROCLOR 1254, Method: STANDARD PLATE
  mutagenic call: active; positive
[2]
  mutagenic call: active; positive
[3]
  mutagenic call: active; positive

## CCCC[C@@H](C)[C@@H](OC(=O)C[C@@H](CC(=O)O)C(=O)O)[C@H](C[C@@H](C)CCCCCC[C@@H](O)C[C@H](O)[C@H](C)N)OC(=O)C[C@@H](CC(=O)O)C(=O)O
Test System: AMES SALMONELLA TYPHIMURIUM, Strain/Indicator: TA97A, Metabolic Activation: NONE, Method: STANDARD PLATE
  mutagenic call: inactive; negative
Test System: AMES SALMONELLA TYPHIMURIUM, Strain/Indicator: TA97A, Metabolic Activation: RAT, LIVER, S-9, AROCLOR 1254, Method: STANDARD PLATE
  mutagenic call: inactive; negative
[1]
  mutagenic call: inactive; negative
Test System: AMES SALMONELLA TYPHIMURIUM, Strain/Indicator: TA98, Metabolic Activation: RAT, LIVER, S-9, AROCLOR 1254, Method: STANDARD PLATE
  mutagenic call: inactive; negative
[2]
  mutagenic call: inactive; negative
[3]
  mutagenic call: inactive; negative
Test System: AMES SALMONELLA TYPHIMURIUM, Strain/Indicator: TA102, Metabolic Activation: NONE, Method: STANDARD PLATE
  mutagenic call: inactive; negative
Test System: AMES SALMONELLA TYPHIMURIUM, Strain/Indicator: TA102, Metabolic Activation: RAT, LIVER, S-9, AROCLOR 1254, Method: STANDARD PLATE
  mutagenic call: inactive; negative

## COc1cc2c(cc1O)CC[C@@H]1[C@@H]2CC[C@]2(C)[C@@H](O)CC[C@@H]12
Test System: Mouse lymphoma, Strain/Indicator: L5178Y (tk+/tk-), Metabolic Activation: Rat, Liver, S-9, Aroclor 1254, Method: Suspension/plate
  mutagenic call: active; equivocal (previous evaluation positive)

## O=C(O)[C@@H]1Cc2c([nH]c3ccccc23)[C@@H]([C@H]2CCNC2=S)N1
Test System: AMES SALMONELLA TYPHIMURIUM, Strain/Indicator: TA98, Metabolic Activation: NONE
  mutagenic call: inactive; negative
Test System: AMES SALMONELLA TYPHIMURIUM, Strain/Indicator: TA98, Metabolic Activation: S-9
  mutagenic call: active; positive
Test System: AMES SALMONELLA TYPHIMURIUM, Strain/Indicator: TA100, Metabolic Activation: NONE
  mutagenic call: inactive; negative
Test System: AMES SALMONELLA TYPHIMURIUM, Strain/Indicator: TA100, Metabolic Activation: S-9
  mutagenic call: inactive; negative

## CN(C)CCNC(=O)c1cccc2c1Nc1ccccc1O2
Test System: AMES SALMONELLA TYPHIMURIUM, Strain/Indicator: TA1537, Metabolic Activation: NONE, Method: STANDARD PLATE
  mutagenic call: active; positive
